Consider two molecules from BindingDB's records for PubMed 33129590 (Key Laboratory of Technology of Drug Preparation (Zhengzhou …, 2021).

For experiment [1], the target named is Poly [ADP-ribose] polymerase 1 (Homo sapiens, UniProt P09874). Briefly: Displacement of [125I]KX1 from PARP1 in human OVCAR-8 cells incubated for 1 hr by wizard gamma counter analysis. For orientation: Displacement assays read how much labelled ligand stays bound in the presence of the test substance.
Experiment [2] addresses Prostaglandin G/H synthase 2 (Homo sapiens) (UniProt P35354). Briefly: Inhibition of COX-2 (unknown origin).
Experiment [3] addresses Prostaglandin G/H synthase 1 (Homo sapiens) (UniProt P23219). In words: Inhibition of COX-1 (unknown origin).

Molecules are shown by their SMILES.

Sequence of Prostaglandin G/H synthase 2 (Homo sapiens) (P35354 whole entry, looked up): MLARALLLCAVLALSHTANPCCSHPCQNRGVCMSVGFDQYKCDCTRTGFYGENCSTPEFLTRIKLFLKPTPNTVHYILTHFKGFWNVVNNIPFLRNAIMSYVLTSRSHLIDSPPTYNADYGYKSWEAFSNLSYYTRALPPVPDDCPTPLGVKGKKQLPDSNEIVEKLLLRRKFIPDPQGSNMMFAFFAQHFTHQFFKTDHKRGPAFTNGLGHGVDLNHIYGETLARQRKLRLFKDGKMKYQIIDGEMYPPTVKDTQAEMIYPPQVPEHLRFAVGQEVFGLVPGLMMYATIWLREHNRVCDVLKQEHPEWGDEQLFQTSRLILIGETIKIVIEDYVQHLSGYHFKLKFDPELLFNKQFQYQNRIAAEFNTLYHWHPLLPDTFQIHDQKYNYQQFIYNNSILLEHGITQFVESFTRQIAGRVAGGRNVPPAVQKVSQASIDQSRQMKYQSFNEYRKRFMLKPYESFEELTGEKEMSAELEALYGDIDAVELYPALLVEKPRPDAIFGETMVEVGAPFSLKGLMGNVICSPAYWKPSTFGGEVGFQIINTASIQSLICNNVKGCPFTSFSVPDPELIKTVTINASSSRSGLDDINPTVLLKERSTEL
Sequence of Poly [ADP-ribose] polymerase 1 (P09874 whole entry): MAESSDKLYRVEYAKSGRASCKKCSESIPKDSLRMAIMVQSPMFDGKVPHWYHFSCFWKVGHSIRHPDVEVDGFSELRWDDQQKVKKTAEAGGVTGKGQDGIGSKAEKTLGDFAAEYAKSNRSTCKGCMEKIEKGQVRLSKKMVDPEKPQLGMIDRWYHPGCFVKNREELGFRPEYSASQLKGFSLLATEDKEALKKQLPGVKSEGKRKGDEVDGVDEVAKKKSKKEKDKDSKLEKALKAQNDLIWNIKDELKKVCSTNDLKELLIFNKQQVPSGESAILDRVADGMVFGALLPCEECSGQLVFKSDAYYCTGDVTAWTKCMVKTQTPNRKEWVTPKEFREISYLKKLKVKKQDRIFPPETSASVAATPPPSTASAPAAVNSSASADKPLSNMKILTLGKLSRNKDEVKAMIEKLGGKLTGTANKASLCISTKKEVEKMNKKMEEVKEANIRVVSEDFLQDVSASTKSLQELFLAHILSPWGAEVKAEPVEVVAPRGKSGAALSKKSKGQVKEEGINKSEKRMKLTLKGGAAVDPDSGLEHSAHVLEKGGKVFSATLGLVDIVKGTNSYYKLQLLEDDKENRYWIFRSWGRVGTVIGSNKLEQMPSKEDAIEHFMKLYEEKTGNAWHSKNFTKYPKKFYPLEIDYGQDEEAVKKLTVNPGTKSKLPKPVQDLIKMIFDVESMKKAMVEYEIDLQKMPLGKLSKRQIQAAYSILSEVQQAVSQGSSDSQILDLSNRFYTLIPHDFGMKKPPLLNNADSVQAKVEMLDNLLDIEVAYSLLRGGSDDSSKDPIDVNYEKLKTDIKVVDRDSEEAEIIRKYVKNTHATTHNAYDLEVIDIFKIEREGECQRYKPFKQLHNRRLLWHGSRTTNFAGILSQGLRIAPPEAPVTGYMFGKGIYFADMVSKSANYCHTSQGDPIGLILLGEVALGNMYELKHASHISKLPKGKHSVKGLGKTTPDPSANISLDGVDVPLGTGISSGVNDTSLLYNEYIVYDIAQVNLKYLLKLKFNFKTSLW

The term IC50 denotes the concentration at which inhibition is half-maximal. In the case of `COC1CC(NC(=O)c2cc(Cc3n[nH]c(=O)c4ccccc34)ccc2F)C1` (stereo not drawn), the half-maximal inhibitory concentration (IC50) in experiment [1] is 44 nM.
In the case of `COc1ccc(-c2nc(N3N=C(c4ccc(F)cc4)CCC3=O)n(C)c(=O)c2C#N)cc1`, the figures for the concentration for half-maximal inhibition (IC50) in experiment [2] and in experiment [3] were 1400 nM and 115 µM, respectively.
